Read-outs that look alike come from different tables or passages of the source.
Legend:
[1] = tested on: Wilson disease patients with and without cirrhosis
Description: Mortality in Wilson disease is usually secondary to decompensated hepatic cirrhosis and liver failure; therefore, liver function is an important factor in determining appropriate treatment regimens. The outcome of patients with and without cirrhosis using in the patient pool of Example 1, supplemented with week 48 data generated in the 3-year extension phase of the initial trial, was analyzed.
For the analyses described in this example, patients were characterized as having cirrhosis based on medical history (biopsy or imaging) or based on estimates of AST to Platelet Ratio Index (APRI) (AST refers to aspartate aminotransferase). Summary statistics were calculated for Baseline demographics, NCCcorr levels, ALT levels, MELD and modified Nazer scores, Albumin concentration, International normalized ratio (INR), Disability and neurological status using the unified Wilson's disease rating scale, and adverse events (AEs). […] Patient flow for the extension study is depicted in FIG. 12.

[2] = tested on: patients with Wilson disease
Description: Changes in neurological status were characterized using the Unified Wilson's Disease Rating Scale (UWDRS).
Patients were excluded if they had decompensated hepatic cirrhosis, a model for end-stage liver disease (MELD) score >11, or a modified Nazer score (revised King's score)>6.
The 24-week, phase 2, open-label study was conducted in Europe and the USA. […] Thereafter, dosing was tailored according to laboratory (including NCC concentrations adjusted for plasma molybdenum) and clinical assessments (maximum daily dose administered: 120 mg).
Disability and neurological status were assessed using parts II and III, respectively, of the UWDRS at baseline and weeks 4, 8, 12, 18, and 24: Disability (part II): 10-item patient-reported questionnaire (range for total scores: 0-40; higher scores indicate greater disability). Neurological status (part III): 23-item clinician-assessed score (range for total scores: 0-143; higher scores indicate worse neurological status). Data (total scores for UWDRS parts II and III, and AEs) are summarized briefly for context in Results.
UWDRS neurological status scores at baseline, week 24, and change from baseline to week 24 were calculated for: any individual item experienced by at least 50% of patients; and for item groups (i.e. collections of individual items that could be considered to represent particular patient phenotypes [Table 11]).
Least-squares mean (standard error [SE], 95% confidence intervals [CIs]) values were calculated for changes from baseline for UWDRS total scores using a mixed-model repeated-measures analysis; significance was assessed using two-sided p values. To investigate and quantify the relationship between UWDRS total scores for parts II and III, a random coefficients analysis was conducted using each patient's scores from all study visits. Summary statistics were calculated for other outcomes.

[3] = core study, patients without cirrhosis
[4] = extension phase, with cirrhosis
[5] = of 22 patients, baseline to week 24

C[N+](C)(C)CCO.C[N+](C)(C)CCO.[SH-].[SH-].[S]=[Mo]=[S] [WTX101, bis-choline tetrathiomolybdate]
patients with ALT elevations requiring dose adjustments ([1]; core study, patients with cirrhosis): five
patients with ALT elevations requiring dose adjustments [1, 3]: seven
patients with study withdrawal associated with ALT elevations [1, 3]: three
patients with adverse events (AEs) ([1]; core study, with cirrhosis): 10
patients with increased ALT and GGT levels (each) ([1]; core study, with cirrhosis): three
patients with increased AST levels ([1]; core study, with cirrhosis): four
patients with adverse events (AEs) ([1]; core study, without cirrhosis): 12
patients with increased ALT and GGT levels (each) ([1]; core study, without cirrhosis): five
patients with increased AST levels ([1]; core study, without cirrhosis): four
patients with tremor (AE) ([1]; core study, without cirrhosis): four
patients with SAEs possibly related to WTX101 ([1]; extension phase, cirrhosis group, neutropenia, hepatolenticular degeneration): two
patients who experienced AEs [1, 4]: nine
patients with urinary tract infection [1, 4]: four
patients who experienced AEs ([1]; extension phase, without cirrhosis): six
liver function ([1]; up to 48 weeks, patients with and without cirrhosis): stable
ALT elevations requiring dose adjustments ([1]; week 24 to week 48, regardless of cirrhosis status): no ALT elevations requiring dose adjustments occurred
patients with severe adverse events (SAEs) ([1]; weeks 0-48, with cirrhosis): four
patients with severe adverse events (SAEs) ([1]; weeks 0-48, without cirrhosis): six
individuals with deterioration in dystonia item group score ([2]; baseline to week 24): three
individuals with deterioration in gait item group score ([2]; baseline to week 24): six
individuals with deterioration in rigidity item group score ([2]; baseline to week 24): four
mean improvement in UWDRS part III item group total tremor ([2]; baseline to week 24, SD 61.7): 34.2%
mean improvement in UWDRS part III item group limb agility (dexterity) and coordination ([2]; baseline to week 24, SD 72.2): 29.2%
overall deterioration in UWDRS part III item group gait ([2]; baseline to week 24, SD 77.8): 4.2%
overall deterioration in UWDRS part III item group dystonia ([2]; baseline to week 24, SD 135.2): 15.0%
overall deterioration in UWDRS part III item group rigidity ([2]; baseline to week 24, SD 169.6): 26.9%
patients with any deterioration in limb agility and coordination item group score [2, 5]: three
patients with any deterioration in tremor item group score [2, 5]: four
mean improvement (% change) in UWDRS part III item alternating hand movements ([2]; over 24 weeks): 35.0%
mean improvement (% change) in UWDRS part III item handwriting ([2]; over 24 weeks): 51.4%
mean improvement (% change) in UWDRS part III item leg agility ([2]; over 24 weeks): 40.8%
mean improvement (% change) in UWDRS part III item postural arm tremor ([2]; over 24 weeks): 39.5%

Reference: US12233088B2 (Alexion Pharmaceuticals, Inc., priority 2017, dated 2025)
